Results reported in patent US4213999A, “Inhibition of lipogenesis” (Shell Oil Company, priority 1979, dated 1980).

System: lipogenesis in swine adipose tissue
Assay: Inhibition of lipogenesis (lipid synthesis from glucose-U^14 C) in swine adipose tissue slices
Type: cell-based
Conditions: Sus scrofa, 100 micrograms per milliliter of incubation mixture, 37° C., 2 hours, 300 microunits of insulin, 5% DMSO, triplicate, read-out: Percent Inhibition of lipogenesis (lipid synthesis) compared to control tests
Source text: The manner in which they cause this effect is not known with certainty; it is believed that they interfere with the synthesis of fatty acids in the tissues. Their effectiveness for this purpose has been ascertained by immersing samples of swine adipose tissue in a liquid medium containing radioactive glucose and the test chemical for a period of time, then isolating the lipid from the treated tissue and determining the uptake of the radioactive carbon by means of scintillation counting techniques. These tests were conducted in swine adipose tissue because in swine, the primary site of lipogenesis--i.e., fatty acid synthesis--appears to be adipose tissue.
Described in more detail, the tests were conducted according to the following general procedure:
150 milligrams of slices of swine adipose tissue were incubated at 37° C. for 2 hours with shaking in 3 milliliters of Krebs-Ringer bicarbonate solution containing one-half of the normal calcium ion concentration, 60 micromoles of glucose, 0.5 micro-Curie of glucose-U^14 C, and 300 microunits of insulin, and 5% dimethyl sulfoxide (DMSO). The test compound was added as a solution or suspension in DMSO and was present as a concentration of 100 micrograms per milliliter of incubation mixture.
The incubation was terminated by addition of 0.25 milliliter of 1 N sulfuric acid. The resulting mixture was extracted with a total of 25 milliliters of chloroform:methanol (2:1, v/v). The extracts were washed according to Folch et al. (J. Biol. Chem., 226, 497-509, (1957)), air dried, and counted in a liquid scintillation counter with 15 milliliters of counting fluid (two parts toluene containing 0.4% w/v New England Nuclear Omnifluor: 1 part Triton X-100). The tests were conducted in triplicate and were accompanied by control tests in which all ingredients,proportions and conditions were the same except that no test compound was included. From the data obtained were calculated the percent inhibition of lipid synthesis by the test compound. The data obtained are reported as the percent inhibition of lipogenesis compared to the results obtained in the control tests wherein only the test compound was omitted.

Row | SMILES | inhibition at 100 µg/mL [%]
1 | CCOC(=O)C1Cc2cc(-c3ccccc3)ccc2O1 (stereo not drawn) [Compound 10, Ethyl 2,3-dihydro-5-phenylbenzofuran-2-carboxylate] | 21
2 | CCOC(=O)C1Cc2cc(-c3ccc(NC(C)=O)cc3)ccc2O1 (stereo not drawn) [Compound 15] | 88
3 | CCOC(=O)c1cc2cc(-c3ccc(NC(C)=O)cc3)ccc2o1 [Compound 8] | 52
4 | CCOC(=O)C1Cc2cc(Cc3ccccc3)ccc2O1 (stereo not drawn) [Compound 11] | 40
5 | CCOC(=O)C1Cc2cc(-c3ccc(Cl)cc3)ccc2O1 (stereo not drawn) [Compound 18, Ethyl 2,3-dihydro-5-(4-chlorophenyl)benzofuran-2-carboxylate] | 28
6 | CCOC(=O)c1cc2cc(Cc3ccccc3)ccc2o1 [Compound 1, Ethyl 5-benzylbenzofuran-2-carboxylate] | 45
7 | CCOC(=O)C1Cc2c(Oc3ccccc3)cccc2O1 (stereo not drawn) [Compound 13] | 20
8 | CCOC(=O)c1cc2c(Oc3ccccc3)cccc2o1 [Compound 4, Ethyl 4-phenoxybenzofuran-2-carboxylate] | 28
9 | CCOC(=O)c1cc2cc(-c3ccc(OC(C)=O)cc3)ccc2o1 [Compound 6, Ethyl 5-(4-acetyloxyphenyl)benzofuran-2-carboxylate] | 56
10 | CCOC(=O)c1cc2cc(-c3ccc(C(C)O)cc3)ccc2o1 (stereo not drawn) [Compound 7, Ethyl 5-(4-(1-hydroxyethyl)phenyl)benzofuran-2-carboxylate] | 71
11 | COC(=O)C1Cc2cc(-c3ccc(C(C)O)cc3)ccc2O1 (stereo not drawn) [Compound 14] | 85
12 | CCOC(=O)C1Cc2ccc(Oc3ccccc3)cc2O1 (stereo not drawn) [Compound 17] | 29
13 | C=CCOC(=O)C1Cc2cc(Cc3ccccc3)ccc2O1 (stereo not drawn) [Compound 12] | 36
14 | CCOC(=O)c1cc2cc(-c3ccc(C(C)=O)cc3)ccc2o1 [Compound 5, Ethyl 5-(4-acetylphenyl)benzofuran-2-carboxylate] | 24
15 | CCOC(=O)c1cc2cc(C(=O)c3ccccc3)ccc2o1 [Compound 3] | 47
16 | CCOC(=O)C1Cc2cc(C3CCCCC3)ccc2O1 (stereo not drawn) [Compound 16] | 21
17 | CCCCCCOc1ccc2oc(C(=O)OCC)cc2c1 [Compound 2] | 23
18 | CCOC(=O)c1cc2cc(-c3ccc(N)cc3)ccc2o1 [Compound 9, Ethyl 5-(4-aminophenyl)benzofuran-2-carboxylate] | 45
